Source: publication PMC11173677, “Identification and Evaluation of Olive Phenolics in the Context of Amine Oxidase Enzyme Inhibition and Depression: In Silico Modelling and In Vitro Validation” (Molecules, 2024)

Legend:
total MAO = test: Total MAO activity assay in corticosteroid-stimulated BJ cells; format: cell-based, human; conditions: then 50 μM compound 24 h
Method: (§1) The BJ cells were subsequently incubated with 10 μM HC or 100 μM DEX to stimulate MAO expression. […] The untreated BJ cells received normal growth medium. The cells were collected, homogenised, and analysed through Western blotting where the expression of MAO-A/B was determined through immunodetection of protein subtypes.
(§2) Activity assays were commercially sourced from BioVision (Abcam, BioVision ab241031, Waltham, MA, USA) and were performed according to manufacturer’s instructions. The treatment groups were plated in duplicate on a black, flat 96-well microplate. The cells were homogenised in assay buffer using a microtube mixer at 4 °C and centrifuged at 10,000× g for 10 min. A Bradford assay was performed to determine the total protein concentration within each cell pellet (200 μg/well for BJ cells, 40 μg/well for hESC-derived neurons). Approximately 40 μL of supernatant was loaded into wells along with 10 μL of either […], or assay buffer for total MAO activity. A H2O2 standard was pipetted as supplied and 50 μL of reaction mix was pipetted into all wells. Using a CLARIOstar Plus Microplate Reader, (BMG Labtech, Ortenberg, Germany), fluorescence was measured kinetically at 25 °C for 60 min with Ex/Em = 535/587 nm.

purified MAO-A = biological target: T1, purified MAO-A (Homo sapiens, UniProt P21397); test: MAO-A direct screening assay (inhibitor screening kit); format: biochemical; conditions: purified enzyme; read-out: IC50, inhibition of MAO-A
T1 construct: purchased Sigma-Aldrich MAK295
T1 sequence (P21397 1-527): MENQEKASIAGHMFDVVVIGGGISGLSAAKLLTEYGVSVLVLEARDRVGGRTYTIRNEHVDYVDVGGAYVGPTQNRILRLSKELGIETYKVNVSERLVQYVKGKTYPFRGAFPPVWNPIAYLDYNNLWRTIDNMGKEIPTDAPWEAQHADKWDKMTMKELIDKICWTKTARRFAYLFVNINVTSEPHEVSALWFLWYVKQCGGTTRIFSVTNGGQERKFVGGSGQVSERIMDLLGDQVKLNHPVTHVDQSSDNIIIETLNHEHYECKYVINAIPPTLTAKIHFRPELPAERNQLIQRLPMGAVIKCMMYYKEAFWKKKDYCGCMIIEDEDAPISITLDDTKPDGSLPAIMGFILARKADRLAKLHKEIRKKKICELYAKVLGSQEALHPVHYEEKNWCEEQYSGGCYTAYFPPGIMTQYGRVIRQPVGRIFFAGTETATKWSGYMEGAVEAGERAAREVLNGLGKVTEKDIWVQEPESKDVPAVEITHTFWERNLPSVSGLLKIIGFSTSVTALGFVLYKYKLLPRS
Method: (§3) The assays were conducted for MAO-A and MAO-B according to the manufacturer’s instructions.

MAO-A = system: T2, MAO-A; test: MAO-A activity assay in corticosteroid-stimulated BJ cells; format: cell-based, human; conditions: then 50 μM compound 24 h
T2 construct: endogenous in cells; host or cells: BJ human foreskin fibroblasts stimulated with DEX or HC
Method: as §1, §2

MAO-A/B expression = test: MAO-A/B protein expression in HC- or DEX-stimulated BJ cells (Western blotting); format: cell-based, human; conditions: 10 μM HC 5 days or 100 μM DEX 7 days, then 50 μM compound; Western blot
Method: as §1

MAO-B = system: T3, MAO-B; test: MAO-B activity assay in hESC-derived neurons stimulated with ATRA; format: cell-based, human; conditions: 1 μM ATRA 24 h, then TCP 5 μM, OLC 50 μM or OLP 50 μM for 24 h
T3 construct: endogenous in cells; host or cells: BJ human foreskin fibroblasts stimulated with DEX or HC
Method: An in vitro model of MDD was designed for stem cell-derived neuronal cells through incubation of 1 μM all-trans retinoic acid (Sigma-Aldrich PHR1187, St. Louis, MO, USA). All cell treatments were conducted in duplicate and replicated using independently differentiating neuronal plates.
as §2

LSD1 = biological target: T4, LSD1 (Homo sapiens, UniProt O60341); test: LSD1 fluorescence coupling enzyme assay (Reaction Biology Corporation); format: biochemical; conditions: Reaction Biology Corp., 30 min pre-incubation, 10 μM histone H3(1-21)K4me2 peptide substrate; read-out: IC50, LSD1 demethylase activity
T4 construct: Reaction Biology Corporation (performed the assay)
Method: The inhibitory activity of HCl 489479, OLC, and OLP was measured using a fluorescence coupling enzyme assay (performed by Reaction Biology Corporation). […] All compounds were pre-incubated for 30 min with the enzyme before the addition of 10 μM histone H3(1-21)K4me2 peptide substrate to start the reaction. Fluorescence was measured using an EnVision Multimode Plate Reader at Ex/Em = 535/590.

purified MAO-B = biological target: T5, purified MAO-B (Homo sapiens, UniProt P27338); test: MAO-B direct screening assay (inhibitor screening kit); format: biochemical; conditions: purified enzyme; read-out: IC50, inhibition of MAO-B
T5 construct: purchased Sigma-Aldrich MAK296
T5 sequence (P27338 1-520): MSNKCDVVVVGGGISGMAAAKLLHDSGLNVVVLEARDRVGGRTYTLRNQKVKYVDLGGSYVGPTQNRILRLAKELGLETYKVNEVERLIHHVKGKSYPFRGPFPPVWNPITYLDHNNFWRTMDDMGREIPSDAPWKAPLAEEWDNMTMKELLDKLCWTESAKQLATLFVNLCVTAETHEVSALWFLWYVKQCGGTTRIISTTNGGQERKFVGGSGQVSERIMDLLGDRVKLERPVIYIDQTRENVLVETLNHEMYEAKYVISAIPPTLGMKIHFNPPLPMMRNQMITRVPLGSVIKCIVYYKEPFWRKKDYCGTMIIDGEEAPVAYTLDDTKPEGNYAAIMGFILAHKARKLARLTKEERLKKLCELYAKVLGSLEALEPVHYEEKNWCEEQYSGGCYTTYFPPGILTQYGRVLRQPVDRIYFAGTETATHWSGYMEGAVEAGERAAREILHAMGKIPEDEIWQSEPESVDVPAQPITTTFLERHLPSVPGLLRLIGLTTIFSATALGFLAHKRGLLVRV
Method: as §3

## COC(=O)[C@H](O)CC(=O)OCCc1ccc(O)c(O)c1 [OLP, oleohydroxypyretol]
Total MAO; 10 μM HC 5 days
  total MAO activity in BJ cells: downregulate
Total MAO; 100 μM DEX 7 days
  total MAO activity in BJ cells: downregulate
Purified MAO-A
  IC50: 0.85 µM
MAO-A; 10 μM HC 5 days
  MAO-A activity in BJ cells: downregulate
MAO-A; 100 μM DEX 7 days
  MAO-A activity in BJ cells: downregulate
MAO-A/B expression
  MAO enzyme expression within BJ cells: Potent inhibition
MAO-B
  MAO-B activity in hESC-derived neurons: significantly reduced
LSD1
  IC50: 0.12 µM
Purified MAO-B
  IC50: 32 µM
